Assay results: patent publication US20200069691A1, “HETEROCYCLIC COMPOUNDS AS HIV PROTEASE INHIBITORS” (Merck Sharp & Dohme Corp., priority 2016, published 2020)

The compounds below were run against T1, wild-type HIV-1 protease (Human immunodeficiency virus type 1 group M subtype B, UniProt P04585) (assay: Assay for Inhibition of Microbial Expressed HIV Protease (peptide substrate cleavage, LC-MS/MS readout)). Details: E. coli expressed wild-type HIV-1 protease, mean of at least two independent experiments, read-out: HIV Pr Enzyme HIV1 PR IC50.
T1 construct: Escherichia coli expressed wild-type HIV-1 protease protein
Assay type: biochemical
Summary of the method: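 Cleavage of Val-Ser-Gln-Asn-(β-naphthyl)Ala-Pro-Ile-Val (400 μM) by recombinant HIV-1 protease ([…]) ran 1 h at 30 °C after a 30 min room-temperature inhibitor preincubation in 50 mM sodium acetate pH 5.5. Product peak areas by LC-MS/MS gave inhibition; values average at least two independent runs.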
Compound `N=C1N[C@](CCCC(F)(F)F)(c2ccc(F)cc2)C(=O)N1Cc1ccc(C(F)(F)F)c(C(=O)N2Cc3cnc(-c4ccc(F)cc4)nc3C2)c1` [Compound 97, (5R)-5-(4-fluorophenyl)-3-[3-{[2-(4-fluorophenyl)-5,7-dihydro-6H-pyrrolo[3,4-d]pyrimidin-6-yl]carbonyl}-4-(trifluoromethyl)-benzyl]-2-imino-5-(4,4,4-trifluorobutyl)imidazolidin-4-one] has an IC50 of 20.5 nM.
`N=C1N[C@](CCCC(F)(F)F)(c2ccc(F)cc2)C(=O)N1Cc1ccc(C(F)(F)F)c(C(=O)N2CCn3cnnc3C2)c1` [Compound 98, (5R)-3-[3-(5,6-dihydro[1,2,4]triazolo[4,3-a]pyrazin-7(8H)-ylcarbonyl)-4-(trifluoromethyl)benzyl]-5-(4-fluorophenyl)-2-imino-5-(4,4,4-trifluorobutyl)imidazolidin-4-one] gave an IC50 of 20.7 nM.
Compound `N=C1N[C@](CCCC(F)(F)F)(c2ccc(F)cc2)C(=O)N1Cc1ccc(C(F)(F)F)c(C(=O)N2CCN(c3ccccn3)CC2)c1` [Compound 99, (5R)-5-(4-fluorophenyl)-2-imino-3-{3-[(4-pyridin-2-ylpiperazin-1-yl)carbonyl]-4-(trifluoromethyl)-benzyl}-5-(4,4,4-trifluorobutyl)-imidazolidin-4-one] has an IC50 of 21.4 nM.
`CC(C)CC[C@]1(c2ccc(F)cc2)NC(=N)N(C(c2ccc(C(F)(F)F)c(C(=O)N3Cc4nccnc4C3)c2)C2CCCC2)C1=O` (stereo partly drawn) [Compound 101, (5R)-3-{cyclopentyl[3-(5,7-dihydro-6H-pyrrolo[3,4-b]pyrazin-6-ylcarbonyl)-4-(trifluoromethyl)-phenyl]methyl}-5-(4-fluorophenyl)-2-imino-5-(3-methylbutyl)-imidazolidin-4-one] gave an IC50 of 23.2 nM.
`C=CCOC(=O)N1CCN(C(=O)c2cc(CN3C(=N)N[C@](CCCC(F)(F)F)(c4ccc(F)cc4)C3=O)ccc2C(F)(F)F)CC1` [Compound 102, prop-2-en-1-yl 4-{[5-{[(4R)-4-(4-fluorophenyl)-2-imino-5-oxo-4-(4,4,4-trifluorobutyl)imidazolidin-1-yl]methyl}-2-(trifluoromethyl)-phenyl]carbonyl} piperazine-1-carboxylate] showed an IC50 of 23.2 nM.
In the case of `N=C1N[C@](CCC2CC2)(c2cccc(F)c2)C(=O)N1Cc1ccc(C(F)(F)F)c(C(=O)N2CCn3c(nnc3C(F)(F)F)C2)c1` [Compound 103, (5R)-5-(2-cyclopropylethyl)-5-(3-fluorophenyl)-2-imino-3-[4-(trifluoromethyl)-3-{[3-(trifluoro-methyl)-5,6-dihydro[1,2,4]triazolo-[4,3-a]pyrazin-7(8H)-yl]carbonyl}-benzyl]imidazolidin-4-one], the IC50 is reported as 23.8 nM.
In the case of `Cc1cccc(-c2ncc3c(n2)CN(C(=O)c2cc(CN4C(=N)N[C@](CCCC(F)(F)F)(c5ccc(F)cc5)C4=O)ccc2C(F)(F)F)C3)c1` [Compound 104, (5R)-5-(4-fluorophenyl)-2-imino-3-[3-{[2-(3-methylphenyl)-5,7-dihydro-6H-pyrrolo[3,4-d]pyrimidin-6-yl]carbonyl}-4-(trifluoromethyl)benzyl]-5-(4,4,4-trifluorobutyl)imidazolidin-4-one], the IC50 is reported as 24.2 nM.
`N=C1NC(C[C@@H]2CCOC2)(c2ccccc2)C(=O)N1Cc1ccc(C(F)(F)F)c(C(=O)N2CCn3c(nnc3C(F)(F)F)C2)c1` (stereo partly drawn) [Compound 105, 2-imino-5-phenyl-5-[(3R)-tetrahydrofuran-3-ylmethyl]-3-[4-(trifluoromethyl)-3-{[3-(trifluoro-methyl)-5,6-dihydro[1,2,4]triazolo-[4,3-a]pyrazin-7(8H)-yl]carbonyl}-benzyl]limidazolidin-4-one] showed an IC50 of 24.7 nM.
`N=C1N[C@](CCCC(F)(F)F)(c2ccc(F)cc2)C(=O)N1Cc1ccc(C(F)(F)F)c(C(=O)N2Cc3cnc(N4CCCC4)nc3C2)c1` [Compound 106, (5R)-5-(4-fluorophenyl)-2-imino-3-{3-[(2-pyrrolidin-1-yl-5,7-dihydro-6H-pyrrolo[3,4-d]pyrimidin-6-yl)carbonyl]-4-(trifluoromethyl)-benzyl}-5-(4,4,4-trifluorobutyl)-imidazolidin-4-one] gave an IC50 of 25.4 nM.
In the case of `N=C1N[C@](CCC2CC2)(c2ccc(F)cc2)C(=O)N1[C@@H]1CCOc2ccc(C(=O)N3Cc4nccnc4C3)cc21` [Compound 107, (5R)-5-(2-cyclopropylethyl)-3-[(4R)-6-(5,7-dihydro-6H-pyrrolo-[3,4-b]pyrazin-6-ylcarbonyl)-3,4-dihydro-2H-chromen-4-yl]-5-(4-fluorophenyl)-2-iminoimidazolidin-4-one], the IC50 is reported as 25.9 nM.
`N=C1N[C@](CCCC(F)(F)F)(c2ccc(F)cc2)C(=O)N1Cc1ccc(C(F)(F)F)c(C(=O)N2CCN(c3cccnc3)CC2)c1` [Compound 108, (5R)-5-(4-fluorophenyl)-2-imino-3-{3-[(4-pyridin-3-ylpiperazin-1-yl)carbonyl]-4-(trifluoromethyl)-benzyl}-5-(4,4,4-trifluorobutyl)-imidazolidin-4-one] showed an IC50 of 26.1 nM.
With `CC(=O)N1CCN(C(=O)c2cc(CN3C(=N)N[C@](CCCC(F)(F)F)(c4ccc(F)cc4)C3=O)ccc2C(F)(F)F)CC1` [Compound 109, (5R)-3-{3-[(4-acetylpiperazin-1-yl)carbonyl]-4-(trifluoromethyl)-benzyl}-5-(4-fluorophenyl)-2-imino-5-(4,4,4-trifluorobutyl)-imidazolidin-4-one] the IC50 was 26.5 nM.
Work on `CC(C)CC[C@]1(c2ccccc2)NC(=N)N([C@@H]2CCS(=O)(=O)c3ccc(C(=O)N4Cc5nccnc5C4)cc32)C1=O` [Compound 111, (5R)-3-[(4R)-6-(5,7-dihydro-6H-pyrrolo[3,4-b]pyrazin-6-ylcarbonyl)-1,1-dioxido-3,4-dihydro-2H-thiochromen-4-yl]-2-imino-5-(3-methylbutyl)-5-phenylimidazolidin-4-one] yielded an IC50 of 28.3 nM.
`COCC(=O)N1CCN(C(=O)c2cc(CN3C(=N)N[C@](CCCC(F)(F)F)(c4ccc(F)cc4)C3=O)ccc2C(F)(F)F)CC1` [Compound 112, (5R)-5-(4-fluorophenyl)-2-imino-3-[3-{[4-(methoxyacetyl)piperazin-1-yl]carbonyl}-4-(trifluoromethyl)benzyl]-5-(4,4,4-trifluorobutyl)imidazolidin-4-one] was tested, and the IC50 was 30.7 nM.
In the case of `N=C1N[C@](CCCC(F)(F)F)(c2ccc(F)cc2)C(=O)N1Cc1ccc(C(F)(F)F)c(C(=O)N2Cc3cnc(-c4cnc(-c5ccc(F)cc5)o4)nc3C2)c1` [Compound 113, (5R)-5-(4-fluorophenyl)-3-[3-({2-[2-(4-fluorophenyl)-1,3-oxazol-5-yl]-5,7-dihydro-6H-pyrrolo[3,4-d]pyrimidin-6-yl}carbonyl)-4-(trifluoromethyl)benzyl]-2-imino-5-(4,4,4-trifluorobutyl)imidazolidin-4-one], the IC50 is reported as 31.9 nM.
`N=C1NC(CCC2CC2)(c2cccc(C(F)(F)F)c2)C(=O)N1Cc1ccc(C(F)(F)F)c(C(=O)N2Cc3nccnc3C2)c1` (centres unmarked) [Compound 114, 5-(2-cyclopropylethyl)-3-[3-(5,7-dihydro-6H-pyrrolo[3,4-b]pyrazin-6-ylcarbonyl)-4-(trifluoromethyl)-benzyl]-2-imino-5-[3-(trifluoromethyl)-phenyl]-imidazolidin-4-one] gave an IC50 of 34.5 nM.
Work on `CNC(=O)N1CCN(C(=O)c2cc(CN3C(=N)N[C@](CCCC(F)(F)F)(c4ccc(F)cc4)C3=O)ccc2C(F)(F)F)CC1` [Compound 115, 4-{[5-{[(4R)-4-(4-fluorophenyl)-2-imino-5-oxo-4-(4,4,4-trifluoro-butyl)imidazolidin-1-yl]methyl}-2-(trifluoromethyl)phenyl]carbonyl}-N-methylpiperazine-1-carboxamide] yielded an IC50 of 36.5 nM.
